Assay results as given in article PMC8785525 (Malaria Journal, 2022).
Converted amounts (≈) assume the structure as drawn. Read-outs that look alike come from different tables or passages of the source. Each block holds one compound with its values, some of them ahead of it.

Columns and labels:
[1] = design: method as in PMID 21914160; settings: cited from earlier work
[2] = tested on: P. falciparum 3D7; test: In vitro anti-malarial activity, SYBR-Green I fluorescence assay, strain 3D7; format: cell-based; settings: Plasmodium falciparum, 3D7, Erythrocyte, 72 h, read-out: Inhibition IC50 mean ± SD
Method: (§1) In the in vitro anti-malarial bioassay, strains of P. falciparum (chloroquine sensitive 3D7 and multidrug resistant Dd2) were kept in continuous culture in human erythrocytes in RPMI 1640 medium supplemented with 0.5% Albumax I/II and […] hypoxanthine according to the method previously described by Trager and Jensen. Synchronization of parasites was conducted using sorbitol treatment and parasitaemia was microscopically determined in Giemsa-stained smears.
(§2) In vitro anti-malarial activity assay was performed as previously described. Chloroquine and artemisinin were used as standard anti-malarial drugs, and equivalent free DQ used as a control and dissolved in dimethylsulfoxide (DMSO). Liposomes were diluted into a series of 10 µl different DQ concentrations for the in vitro assay. Each sample (10 µl) was mixed with 90 µl culture medium containing P. falciparum (0.5% parasitaemia and 2% haematocrit) and placed in 96-well microplates, which were incubated for 72 h with 5% CO2 at 37 °C. Lysis buffer (100 µl) containing 0.2 µl SYBR- Green I was then added to each well of the plate and incubated for additional 1.5 h at 37 °C. Fluorescence signal was detected at 488 nm (excitation) and 520 nm (emission) in a microplate reader (Synerfy H1, Bio Tek, USA). The intensity of fluorescence generated by the binding of SYBR-Green I to Plasmodium DNA is relative to the growth of parasites. IC50 values were derived from dose–response curves evaluated with software GraphPad.

[3] = tested on: P. falciparum Dd2; test: In vitro anti-malarial activity, SYBR-Green I fluorescence assay, strain Dd2; format: cell-based; settings: Plasmodium falciparum, DD2, Erythrocyte, 72 h, read-out: Inhibition IC50 mean ± SD
Method: as §1, §2

[4] = tested on: Plasmodium parasites; design: method as in PMID 28491482; settings: cited from earlier work
[5] = infected human red blood cells, DQ concentration for liposomes

- IC50 [2, 5]: 1.63 ± 0.13 nM
- IC50 [3, 5]: 1.57 ± 0.49 nM
SMILES: CCCCCCCCCCOc1cc2c(O)c(C(=O)OCC)cnc2cc1OCC [DQ in DMSO, Decoquinate]
- minimum inhibitory concentration (MIC) [4]: 5.12 ng/mL (≈ 0.0123 µM)

- IC50 [2]: 23.75 ± 0.06 nM
- IC50 [3]: 185 ± 16.2 nM
SMILES: CCN(CC)CCCC(C)Nc1ccnc2cc(Cl)ccc12 (stereo not drawn) [Chloroquine]

Further lines, the compound ahead of its results:

SMILES: C[C@H]1[C@H](OC(=O)CCC(=O)O)O[C@@H]2O[C@@]3(C)CC[C@H]4[C@H](C)CC[C@@H]1[C@@]24OO3 [artesunate]
- half-life ([1]; intravenous artesunate, parent AS): less than 15 min

SMILES: C[C@@H]1CC[C@H]2[C@@H](C)C(=O)O[C@@H]3O[C@@]4(C)CC[C@@H]1[C@]32OO4 [Artemisinin]
- IC50 [2, 5]: 16.4 ± 5.8 nM
- IC50 [3, 5]: 18.5 ± 0.5 nM

SMILES: C[C@H]1[C@@H](O)O[C@@H]2O[C@@]3(C)CC[C@H]4[C@H](C)CC[C@@H]1[C@@]24OO3 [DHA, dihydro-artemisinin]
- half-life ([1]; DHA formed from intravenous artesunate): 30 to 60 min
